Data from patent US10851102B2, “Imidazole and triazole containing bicyclic compounds as JAK inhibitors” (THERAVANCE BIOPHARMA R&D IP, LLC, priority 2019, dated 2020).

Legend:
[1] = biological target: JAK2 (Homo sapiens (Human), UniProt O60674); assay: Biochemical JAK and Tyk2 kinase assays (LanthaScreen): JAK2; conditions: 1 h pre-incubation, ATP at Km; pIC50 converted to pKi by Cheng-Prusoff
Protocol: (§1) Assay 1: Biochemical JAK and Tyk2 Kinase Assays
(§2) A panel of four LanthaScreen JAK biochemical assays (JAK1, 2, 3 and Tyk2) were carried in a common kinase reaction buffer (50 mM HEPES, pH 7.5, 0.01% Brij-35, 10 mM MgCl2, and 1 mM EGTA). Recombinant GST-tagged JAK enzymes and a GFP-tagged STAT1 peptide substrate were obtained from Life Technologies.
(§3) Serially or discretely diluted compounds were pre-incubated with each of the four JAK enzymes and the substrate in white 384-well microplates (Corning) at ambient temperature for 1 h. ATP was subsequently added to initiate the kinase reactions in 10 μL total volume, with 1% DMSO. […] Kinase reactions were allowed to proceed for 1 hour at ambient temperature before a 10 μL preparation of EDTA (10 mM final concentration) and Tb-anti-pSTAT1 (pTyr701) antibody (Life Technologies, 2 nM final concentration) in TR-FRET dilution buffer (Life Technologies) was added. The plates were allowed to incubate at ambient temperature for 1 h before being read on the EnVision reader (Perkin Elmer). Emission ratio signals (520 nm/495 nm) were recorded and utilized to calculate the percent inhibition values based on DMSO and background controls.
(§4) For dose-response analysis, percent inhibition data were plotted vs. compound concentrations, and IC50 values were determined from a 4-parameter robust fit model with the Prism software (GraphPad Software). Results were expressed as pIC50 (negative logarithm of IC50) and subsequently converted to pKi (negative logarithm of dissociation constant, Ki) using the Cheng-Prusoff equation.

[2] = tested on: IL-2 stimulated pSTAT5 in Tall-1 T cells (JAK3); assay: Cellular JAK3 potency assay: inhibition of IL-2 stimulated pSTAT5 in Tall-1 T cells; type: cell-based; conditions: IL-2 300 ng/ml, pSTAT5 AlphaLisa, Tall-1 human T cell line; read-out: Tall-1 (pIC50) (converted)
Protocol: Assay 2: Cellular JAK3 Potency Assay: Inhibition of IL-2 Stimulated pSTAT5 in Tall-1 T Cells
The potency of test compounds for inhibition of interleukin-2 (IL-2) stimulated STATS phosphorylation was measured in the Tall-1 human T cell line (DSMZ) using AlphaLisa. Because IL-2 signals through JAK3, this assay provides a measure of JAK3 cellular potency.
Phosphorylated STATS was measured via the AlphaLISA SureFire Ultra pSTAT5 (Tyr694/699) kit (PerkinElmer).
Human T cells from the Tall-1 cell line were cultured in a 37° C., 5% CO2 humidified incubator in RPMI (Life Technologies) supplemented with 15% Heat Inactivated Fetal Bovine Serum (FBS, Life Technologies), 2 mM Glutamax (Life Technologies), 25 mM HEPES (Life Technologies) and 1× Pen/Strep (Life Technologies). Compounds were serially diluted in DMSO and dispensed acoustically to empty wells. Assay media (phenol red-free DMEM (Life Technologies) supplemented with 10% FBS (ATCC)) was dispensed (4 μL/well) and plates shaken at 900 rpm for 10 mins. Cells were seeded at 45,000 cells/well in assay media (4 μL/well), and incubated at 37° C., 5% CO2 for 1 hour, followed by the addition of IL-2 (R&D Systems; final concentration 300 ng/ml) in pre-warmed assay media ([…]) for 30 minutes. After cytokine stimulation, cells were lysed with 6 ul of 3× AlphaLisa Lysis Buffer (PerkinElmer) containing 1× PhosStop and Complete tablets (Roche). The lysate was shaken at 900 rpm for 10 minutes at room temperature (RT). Phosphorylated STATS was measured via the pSTAT5 AlphaLisa kit (PerkinElmer). Freshly prepared acceptor bead mixture was dispensed onto lysate (5 μL) under green filtered <100 lux light. Plates were shaken at 900 rpm for 2 mins, briefly spun down, and incubated for 2 hrs at RT in the dark. Donor beads were dispensed (5 μL) under green filtered <100 lux light. Plates were shaken at 900 rpm for 2 minutes, briefly spun down, and incubated overnight at RT in the dark. Luminescence was measured with excitation at 689 nm and emission at 570 nm using an EnVision plate reader (PerkinElmer) under green filtered <100 lux light.
To determine the inhibitory potency of test compounds in response to IL-2, the average emission intensity of beads bound to pSTAT5 was measured in a human T cell line. IC50 values were determined from analysis of the inhibition curves of signal intensity versus compound concentration. Data are expressed as pIC50 (negative decadic logarithm IC50) values (mean±standard deviation).

[3] = biological target: JAK3 (Homo sapiens (Human), UniProt P52333); assay: Biochemical JAK and Tyk2 kinase assays (LanthaScreen): JAK3; conditions: for Ki / JAK 3 (pKi): 1 h pre-incubation, ATP at Km, pIC50 converted to pKi by Cheng-Prusoff; for Ki: read-out: JAK 3 (pKi) (converted); for JAK3 (pKi)-JAK1 (pKi): difference of pKi values, selectivity JAK3 over JAK1
Sequence of JAK3 (P52333 whole entry): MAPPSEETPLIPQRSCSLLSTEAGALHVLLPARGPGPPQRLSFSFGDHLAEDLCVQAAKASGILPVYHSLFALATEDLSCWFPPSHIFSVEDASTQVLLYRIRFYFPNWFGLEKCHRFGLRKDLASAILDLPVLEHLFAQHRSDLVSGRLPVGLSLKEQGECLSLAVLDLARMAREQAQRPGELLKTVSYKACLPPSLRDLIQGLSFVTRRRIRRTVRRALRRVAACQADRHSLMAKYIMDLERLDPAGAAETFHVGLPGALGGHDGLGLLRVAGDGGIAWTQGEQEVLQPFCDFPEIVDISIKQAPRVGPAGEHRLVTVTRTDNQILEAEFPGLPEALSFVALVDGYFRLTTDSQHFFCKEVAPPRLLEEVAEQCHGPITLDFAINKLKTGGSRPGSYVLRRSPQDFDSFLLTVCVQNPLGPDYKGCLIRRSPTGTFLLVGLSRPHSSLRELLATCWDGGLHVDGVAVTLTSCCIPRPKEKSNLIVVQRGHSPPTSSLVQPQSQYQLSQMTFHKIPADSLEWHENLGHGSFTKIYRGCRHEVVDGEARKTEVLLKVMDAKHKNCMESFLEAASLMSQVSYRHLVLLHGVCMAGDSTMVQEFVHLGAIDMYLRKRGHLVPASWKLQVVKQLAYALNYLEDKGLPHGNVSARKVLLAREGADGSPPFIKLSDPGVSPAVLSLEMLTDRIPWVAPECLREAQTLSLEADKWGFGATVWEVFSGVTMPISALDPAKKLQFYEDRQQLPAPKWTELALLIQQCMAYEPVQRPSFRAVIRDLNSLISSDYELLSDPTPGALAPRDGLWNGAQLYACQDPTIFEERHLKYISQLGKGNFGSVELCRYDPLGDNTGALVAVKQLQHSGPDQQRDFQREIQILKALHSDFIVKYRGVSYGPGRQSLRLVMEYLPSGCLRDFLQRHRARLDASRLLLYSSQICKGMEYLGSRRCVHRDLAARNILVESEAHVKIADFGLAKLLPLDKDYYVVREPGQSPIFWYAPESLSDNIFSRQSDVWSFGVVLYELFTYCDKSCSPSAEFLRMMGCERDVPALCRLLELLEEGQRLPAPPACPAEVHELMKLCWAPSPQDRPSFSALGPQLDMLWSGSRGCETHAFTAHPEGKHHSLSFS
Protocol: as §1, §2, §3, §4

[4] = biological target: JAK1 (Homo sapiens (Human), UniProt P23458); assay: Biochemical JAK and Tyk2 kinase assays (LanthaScreen): JAK1; conditions: 1 h pre-incubation, ATP at Km; pIC50 converted to pKi by Cheng-Prusoff
Sequence of JAK1 (P23458 whole entry): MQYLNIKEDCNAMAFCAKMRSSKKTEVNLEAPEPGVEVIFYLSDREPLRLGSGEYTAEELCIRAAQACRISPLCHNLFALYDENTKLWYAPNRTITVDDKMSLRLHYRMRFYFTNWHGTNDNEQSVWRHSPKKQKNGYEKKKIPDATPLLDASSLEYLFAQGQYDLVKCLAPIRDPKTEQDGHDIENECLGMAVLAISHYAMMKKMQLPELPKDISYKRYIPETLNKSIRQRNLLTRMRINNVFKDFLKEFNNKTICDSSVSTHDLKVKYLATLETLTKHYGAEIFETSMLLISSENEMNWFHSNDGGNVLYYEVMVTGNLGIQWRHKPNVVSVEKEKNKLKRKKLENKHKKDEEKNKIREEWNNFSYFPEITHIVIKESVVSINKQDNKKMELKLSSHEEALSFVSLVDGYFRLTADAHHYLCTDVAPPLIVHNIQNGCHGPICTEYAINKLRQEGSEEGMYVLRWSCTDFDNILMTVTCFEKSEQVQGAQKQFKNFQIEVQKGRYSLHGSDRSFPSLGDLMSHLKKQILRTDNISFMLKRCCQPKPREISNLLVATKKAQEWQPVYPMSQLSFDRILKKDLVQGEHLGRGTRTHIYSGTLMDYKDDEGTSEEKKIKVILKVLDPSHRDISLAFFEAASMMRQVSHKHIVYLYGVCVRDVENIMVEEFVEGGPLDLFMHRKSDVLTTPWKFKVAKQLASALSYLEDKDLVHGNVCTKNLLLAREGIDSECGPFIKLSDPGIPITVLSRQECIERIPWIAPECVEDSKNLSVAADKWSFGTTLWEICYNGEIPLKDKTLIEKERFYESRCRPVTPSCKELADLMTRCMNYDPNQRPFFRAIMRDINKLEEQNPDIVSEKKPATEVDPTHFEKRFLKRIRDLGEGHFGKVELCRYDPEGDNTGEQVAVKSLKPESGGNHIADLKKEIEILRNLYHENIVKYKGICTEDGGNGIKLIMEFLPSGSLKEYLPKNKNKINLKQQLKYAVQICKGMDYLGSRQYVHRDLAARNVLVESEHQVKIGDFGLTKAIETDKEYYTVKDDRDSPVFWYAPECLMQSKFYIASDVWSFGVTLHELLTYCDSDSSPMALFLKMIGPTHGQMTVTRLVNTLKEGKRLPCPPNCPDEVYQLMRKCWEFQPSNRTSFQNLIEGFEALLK
Protocol: as §1, §2, §3, §4

[5] = biological target: Tyk2 (Homo sapiens (Human), UniProt P29597); assay: Biochemical JAK and Tyk2 kinase assays (LanthaScreen): Tyk2; conditions: 1 h pre-incubation, ATP at Km; pIC50 converted to pKi by Cheng-Prusoff
Sequence of Tyk2 (P29597 whole entry): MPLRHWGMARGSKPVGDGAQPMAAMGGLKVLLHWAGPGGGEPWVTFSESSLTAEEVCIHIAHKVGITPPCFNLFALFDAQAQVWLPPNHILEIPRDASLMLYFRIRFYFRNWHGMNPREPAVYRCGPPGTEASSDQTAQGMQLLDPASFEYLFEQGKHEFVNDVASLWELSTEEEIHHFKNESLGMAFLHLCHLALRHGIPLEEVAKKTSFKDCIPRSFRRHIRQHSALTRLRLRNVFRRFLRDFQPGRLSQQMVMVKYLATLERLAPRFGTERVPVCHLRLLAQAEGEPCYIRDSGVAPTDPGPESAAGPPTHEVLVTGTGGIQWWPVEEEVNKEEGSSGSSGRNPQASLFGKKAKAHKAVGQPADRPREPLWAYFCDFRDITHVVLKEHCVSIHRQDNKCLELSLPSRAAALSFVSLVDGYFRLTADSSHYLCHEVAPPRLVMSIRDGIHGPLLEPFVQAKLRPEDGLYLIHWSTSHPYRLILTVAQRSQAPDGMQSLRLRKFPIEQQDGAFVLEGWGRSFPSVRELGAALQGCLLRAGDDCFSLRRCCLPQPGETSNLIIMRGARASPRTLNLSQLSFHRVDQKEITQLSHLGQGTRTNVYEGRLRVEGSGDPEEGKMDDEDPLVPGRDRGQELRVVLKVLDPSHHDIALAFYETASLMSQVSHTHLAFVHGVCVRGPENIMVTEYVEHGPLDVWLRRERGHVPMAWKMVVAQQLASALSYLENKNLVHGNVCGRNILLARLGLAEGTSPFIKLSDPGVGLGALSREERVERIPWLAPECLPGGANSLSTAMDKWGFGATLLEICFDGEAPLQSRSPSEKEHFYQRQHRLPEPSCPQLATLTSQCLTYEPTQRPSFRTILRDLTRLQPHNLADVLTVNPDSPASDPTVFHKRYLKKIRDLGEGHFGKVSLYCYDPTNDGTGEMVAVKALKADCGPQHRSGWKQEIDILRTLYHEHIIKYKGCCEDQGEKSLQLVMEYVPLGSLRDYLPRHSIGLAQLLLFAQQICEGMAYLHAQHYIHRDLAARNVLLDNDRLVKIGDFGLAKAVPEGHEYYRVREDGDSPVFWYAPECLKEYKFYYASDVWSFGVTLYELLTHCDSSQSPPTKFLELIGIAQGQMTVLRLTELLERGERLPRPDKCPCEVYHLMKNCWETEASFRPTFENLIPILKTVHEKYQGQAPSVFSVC
Protocol: as §1, §2, §3, §4

[6] = tested on: Caco-2 cell monolayers; assay: Caco-2 permeation assay; type: in vitro ADME, human; conditions: 5 μM, A to B, + Verapamil 25 μM, 120 minutes
Excerpt: Assay 5: Caco-2 Permeation Assay

Sequence of JAK2 (O60674 whole entry): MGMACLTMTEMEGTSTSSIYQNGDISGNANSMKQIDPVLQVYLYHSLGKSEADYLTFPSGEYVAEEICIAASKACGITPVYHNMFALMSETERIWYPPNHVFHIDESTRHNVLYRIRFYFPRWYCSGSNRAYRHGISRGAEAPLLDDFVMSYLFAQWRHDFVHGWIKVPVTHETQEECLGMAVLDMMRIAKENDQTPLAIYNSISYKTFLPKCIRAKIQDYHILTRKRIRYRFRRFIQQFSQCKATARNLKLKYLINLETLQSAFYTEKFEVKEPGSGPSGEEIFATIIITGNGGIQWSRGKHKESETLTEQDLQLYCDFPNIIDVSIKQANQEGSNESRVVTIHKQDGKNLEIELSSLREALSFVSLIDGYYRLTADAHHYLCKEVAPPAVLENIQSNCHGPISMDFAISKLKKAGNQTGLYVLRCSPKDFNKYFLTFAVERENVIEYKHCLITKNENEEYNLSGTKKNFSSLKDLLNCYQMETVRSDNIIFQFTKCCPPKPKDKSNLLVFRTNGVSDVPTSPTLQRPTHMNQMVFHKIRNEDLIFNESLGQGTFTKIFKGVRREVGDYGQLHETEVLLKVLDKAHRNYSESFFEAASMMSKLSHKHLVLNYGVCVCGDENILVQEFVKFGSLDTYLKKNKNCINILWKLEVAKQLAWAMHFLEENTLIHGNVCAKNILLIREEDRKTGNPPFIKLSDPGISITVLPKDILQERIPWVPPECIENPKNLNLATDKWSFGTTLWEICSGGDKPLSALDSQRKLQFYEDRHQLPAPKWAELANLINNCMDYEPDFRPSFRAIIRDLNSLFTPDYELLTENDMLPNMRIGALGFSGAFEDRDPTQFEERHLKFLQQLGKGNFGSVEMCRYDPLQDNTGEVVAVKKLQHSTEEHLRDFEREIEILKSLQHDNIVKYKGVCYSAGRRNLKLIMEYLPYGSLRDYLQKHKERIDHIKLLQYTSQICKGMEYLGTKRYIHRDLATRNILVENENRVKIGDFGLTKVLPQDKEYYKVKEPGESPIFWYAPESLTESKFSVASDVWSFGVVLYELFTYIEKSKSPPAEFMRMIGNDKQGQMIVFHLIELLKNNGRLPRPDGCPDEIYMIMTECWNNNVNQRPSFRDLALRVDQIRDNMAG

Row | Compound | JAK 2 (pKi) [1] | IC50 [2] | Ki [3] | JAK3 (pKi)-JAK1 (pKi) [3] | JAK 1 (pKi) [4] | Tyk 2 (pKi) [5] | Caco Kp 10^−6 cm/sec [6] | JAK 3 (pKi) [3]
1 | C=CC(=O)N1CC2(CC(Oc3cc(-c4ccc(O)cc4)cn4cncc34)C2)C1 [Example 37] | E (E represents a pKi value of 7 or below (Ki of 100 nM or above)) | 200 to 1000 nM | 0.1 to 1 nM | A (A represents a value of 3 or above) | E (E represents a pKi value of 7 or below (Ki of 100 nM or above)) | E (E represents a pKi value of 7 or below (Ki of 100 nM or above)) |  | 
2 | C=CC(=O)N1CCC[C@H](Oc2cc(-c3ccc(O)cc3)cn3cncc23)C1 [Example 27] | E (E represents a pKi value of 7 or below (Ki of 100 nM or above)) | 200 to 1000 nM | 0.1 to 1 nM | A (A represents a value of 3 or above) | E (E represents a pKi value of 7 or below (Ki of 100 nM or above)) | E (E represents a pKi value of 7 or below (Ki of 100 nM or above)) |  | 
3 | C=CC(=O)N1CCC(COc2cc(-c3ccc(O)cc3)cn3cncc23)CC1 [Example 2, 1-(4-(((6-(4-hydroxyphenyl)imidazo[1,5-a]pyridin-8-yl)oxy)methyl)piperidin-1-yl)prop-2-en-1-one] | E (E represents a pKi value of 7 or below (Ki of 100 nM or above)) | 200 to 1000 nM | 0.1 to 1 nM | A (A represents a value of 3 or above) | E (E represents a pKi value of 7 or below (Ki of 100 nM or above)) | E (E represents a pKi value of 7 or below (Ki of 100 nM or above)) | C (C represents a value between 10×10^−6 and 25×10^−6 cm/sec) | 
4 | C=CC(=O)N1CC2(CCC2Oc2cc(-c3ccc(O)cc3)cn3cncc23)C1 (stereo not drawn) [Example 3, 1-(5-((6-(4-hydroxyphenyl)imidazo[1,5-a]pyridin-8-yl)oxy)-2-azaspiro[3.3]heptan-2-yl)prop-2-en-1-one] | E (E represents a pKi value of 7 or below (Ki of 100 nM or above)) | 31.6 to 200 nM | 0.1 to 1 nM | A (A represents a value of 3 or above) | E (E represents a pKi value of 7 or below (Ki of 100 nM or above)) | E (E represents a pKi value of 7 or below (Ki of 100 nM or above)) |  | 
5 | C=CC(=O)N1CC(COc2cc(-c3ccc(O)cc3CC)cn3cncc23)C1 [Example 21] | E (E represents a pKi value of 7 or below (Ki of 100 nM or above)) | 31.6 to 200 nM | 0.1 to 1 nM | A (A represents a value of 3 or above) | E (E represents a pKi value of 7 or below (Ki of 100 nM or above)) | E (E represents a pKi value of 7 or below (Ki of 100 nM or above)) | B (B represents a value between 5×10^−6 and 10×10^−6 cm/sec) | 
6 | C=CC(=O)N1CC(COc2cc(-c3cc(Cl)c(O)c(Cl)c3)cn3cncc23)C1 [Example 33] |  | 31.6 to 200 nM |  | A (A represents a value of 3 or above) | E (E represents a pKi value of 7 or below (Ki of 100 nM or above)) |  | A (A represents a value below 5×10^−6 cm/sec) | A (A represents a pKi value≥10 (Ki≤0.1 nM))
7 | C=CC(=O)N1CC[C@@H](Oc2cc(-c3ccc(O)cc3)cn3cncc23)C[C@@H]1C [Example 39] | E (E represents a pKi value of 7 or below (Ki of 100 nM or above)) | 31.6 to 200 nM |  | A (A represents a value of 3 or above) | E (E represents a pKi value of 7 or below (Ki of 100 nM or above)) | E (E represents a pKi value of 7 or below (Ki of 100 nM or above)) |  | A (A represents a pKi value≥10 (Ki≤0.1 nM))
8 | C=CC(=O)N1CCC(Nc2cc(-c3ccc(O)cc3)cn3cncc23)CC1 [Example 4, 1-(4-((6-(4-hydroxyphenyl)imidazo[1,5-a]pyridin-8-yl)amino)piperidin-1-yl)prop-2-en-1-one] | E (E represents a pKi value of 7 or below (Ki of 100 nM or above)) |  | 1 to 10 nM | B (B represents a value of 2.3 to 3) | E (E represents a pKi value of 7 or below (Ki of 100 nM or above)) | E (E represents a pKi value of 7 or below (Ki of 100 nM or above)) |  | 
9 | C=CC(=O)N1CC(COc2cc(-c3ccc(O)cc3C)cn3cncc23)C1 [Example 44] | E (E represents a pKi value of 7 or below (Ki of 100 nM or above)) | 31.6 to 200 nM | 0.1 to 1 nM | A (A represents a value of 3 or above) | E (E represents a pKi value of 7 or below (Ki of 100 nM or above)) | E (E represents a pKi value of 7 or below (Ki of 100 nM or above)) |  | 
10 | CN(C)C/C=C/C(=O)N1CC(COc2cc(-c3ccc(O)c(Cl)c3)cn3cncc23)C1 [Example 23] | E (E represents a pKi value of 7 or below (Ki of 100 nM or above)) | 200 to 1000 nM | 0.1 to 1 nM | A (A represents a value of 3 or above) | E (E represents a pKi value of 7 or below (Ki of 100 nM or above)) | E (E represents a pKi value of 7 or below (Ki of 100 nM or above)) |  | 
11 | C=CC(=O)N1CC[C@H](COc2cc(-c3ccc(O)cc3)cn3cncc23)C1 [Example 26] | E (E represents a pKi value of 7 or below (Ki of 100 nM or above)) | 200 to 1000 nM | 0.1 to 1 nM | A (A represents a value of 3 or above) | E (E represents a pKi value of 7 or below (Ki of 100 nM or above)) | E (E represents a pKi value of 7 or below (Ki of 100 nM or above)) |  | 
12 | C=CC(=O)N1CC[C@H](Oc2cc(-c3ccc(O)cc3)cn3cncc23)C1 [Example 1, (S)-1-(3-((6-(4-hydroxyphenyl)imidazo[1,5-a]pyridin-8-yl)oxy)pyrrolidin-1-yl)prop-2-en-1-one] | E (E represents a pKi value of 7 or below (Ki of 100 nM or above)) | 200 to 1000 nM | 0.1 to 1 nM | A (A represents a value of 3 or above) | E (E represents a pKi value of 7 or below (Ki of 100 nM or above)) | E (E represents a pKi value of 7 or below (Ki of 100 nM or above)) |  | 
13 | C=CC(=O)N1CC[C@@H](Oc2cc(-c3ccc(O)cc3)cn3cncc23)[C@@H](C)C1 [Example 41] | E (E represents a pKi value of 7 or below (Ki of 100 nM or above)) | 31.6 to 200 nM |  | A (A represents a value of 3 or above) | E (E represents a pKi value of 7 or below (Ki of 100 nM or above)) | E (E represents a pKi value of 7 or below (Ki of 100 nM or above)) |  | A (A represents a pKi value≥10 (Ki≤0.1 nM))
